The results in this text go back to US9365541B2, “Compounds for use in the treatment of parasitic diseases” (IRBM—SCIENCE PARK S.P.A., priority 2012, dated 2016).

The target of one test is T1, human HDAC1 (Homo sapiens, UniProt Q13547).
T1 construct: made in house; host or cells: HeLa (ATCC CCL-2), mammalian cells
The test is described as follows: Homo sapiens HDAC1 inhibition assay (Fluor-de-Lys, enzymatic). The class given is biochemical. Particulars: human HDAC enzymatic assay; read-out: hHDAC IC50. The method, boiled down: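 Fluorogenic deacetylation read-out: trypsin developer, supplemented with 2 μM final TSA as stop, releases fluorophore from deacetylated substrate.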

Test [1] deals with Plasmodium falciparum 3D7. Nature of the test: P. falciparum growth inhibition assay (Pf-LDH). To be noted: Plasmodium falciparum, Erythrocyte; P. falciparum 3D7 infected erythrocytes, 72 h incubation, PfLDH readout. The class given is cell-based. The method, boiled down:
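Compounds were tested against 72 h cultures of the 3D7 strain (0.25% parasitemia, 2% hematocrit, 37° C, low-oxygen gas). Parasite growth was quantified as lactate dehydrogenase activity via NBT reduction, absorbance 650 nm, after freezing and thawing.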

Some results are limits rather than exact numbers.

T1 sequence (Q13547 whole entry): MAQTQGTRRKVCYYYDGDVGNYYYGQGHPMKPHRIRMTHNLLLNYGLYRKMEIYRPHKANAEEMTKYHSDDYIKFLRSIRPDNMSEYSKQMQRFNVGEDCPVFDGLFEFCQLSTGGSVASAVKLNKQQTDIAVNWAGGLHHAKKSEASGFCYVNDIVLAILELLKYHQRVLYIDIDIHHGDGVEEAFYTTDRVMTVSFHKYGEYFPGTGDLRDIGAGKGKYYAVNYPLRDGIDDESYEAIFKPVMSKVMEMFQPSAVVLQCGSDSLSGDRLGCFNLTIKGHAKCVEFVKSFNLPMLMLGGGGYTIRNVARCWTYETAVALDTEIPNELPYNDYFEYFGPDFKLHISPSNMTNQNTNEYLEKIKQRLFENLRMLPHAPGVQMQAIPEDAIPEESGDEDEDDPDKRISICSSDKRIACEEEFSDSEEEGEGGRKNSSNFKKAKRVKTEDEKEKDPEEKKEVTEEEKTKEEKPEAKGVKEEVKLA

One may read the IC50 as the concentration that gives 50% inhibition. In general, EC50 refers to the concentration needed to bring the measured effect to its halfway point. As for `CNC(=O)CCCCC[C@H](NC(=O)c1cncs1)c1ncc(-c2ccc(-c3ncccn3)cc2)[nH]1` [Entry 120, (S)-N-(7-(methylamino)-7-oxo-1-(5-(4-(pyrimidin-2-yl)phenyl)-1H-imidazol-2-yl)heptyl)thiazole-5-carboxamide], the half-inhibitory concentration (IC50) at human HDAC1 is 1 to 5 µM. In addition, the EC50 in test [1] was 1 to 5 µM.
Regarding `CNC(=O)CCCCC[C@H](NC(=O)c1cncs1)c1ncc(-c2ccc3sccc3c2)[nH]1` [Entry 161, (S)-N-(1-(5-(benzo[b]thiophen-5-yl)-1H-imidazol-2-yl)-7-(methylamino)-7-oxoheptyl)thiazole-5-carboxamide], the IC50 on human HDAC1 was in the range of 1 to 5 µM. Moreover, the EC50 in test [1] fell in the range of 1 to 5 µM.
`CNC(=O)CCCCC[C@H](NC(=O)C1CCC1(F)F)c1ncc(-c2ccc3ccncc3c2)[nH]1` (stereo partly drawn) [Entry 145, 2,2-difluoro-N-((S)-1-(5-(isoquinolin-7-yl)-1H-imidazol-2-yl)-7-(methylamino)-7-oxo-heptyl)cyclobutane-carboxamide]: the IC50 at human HDAC1 fell in the range of 1 to 5 µM. In test [1], this molecule returned a half-maximal effective concentration (EC50) of 1 to 5 µM.
With `CNC(=O)CCCCC[C@H](NC(=O)CCn1cncn1)c1ncc(-c2cc3ccccc3nc2OC)[nH]1` [Entry 180, (S)-7-(3-(1H-1,2,4-triazol-1-yl)propanamido)-7-(5-(2-methoxyquinolin-3-yl)-1H-imidazol-2-yl)-N-methyl-heptanamide], the concentration for half-maximal inhibition (IC50) on human HDAC1 was in the range of 1 to 5 µM. In test [1], the EC50 lay in the range of 1 to 5 µM.
In the case of `CNC(=O)CCCCC[C@H](NC(=O)c1ccc(N2CC(=O)NC2=O)cc1)c1ncc(-c2ccc3ccccc3c2)[nH]1` [Entry 41, (S)-4-(2,4-dioxoimidazolidin-1-yl)-N-(7-(methylamino)-1-(5-(naphthalen-2-yl)-1H-imidazol-2-yl)-7-oxo-heptyl)benzamide], the IC50 at human HDAC1 fell in the range of 1 to 5 µM. For the same molecule, in test [1], the EC50 is less than 1 µM.
As for `CCc1nc2ccccc2n1CCC(=O)N[C@@H](CCCCCC(=O)NC)c1ncc(-c2ccc(C(F)(F)F)cc2)[nH]1` [Entry 28], the IC50 at human HDAC1 was less than 1 µM. This molecule also displayed an EC50 in test [1] of 1 to 5 µM.
Take `CNC(=O)CCCCC[C@H](NC(=O)Cn1ccnn1)c1ncc(-c2ccc3ccncc3c2)[nH]1` [Entry 58, (S)-7-(2-(1H-1,2,3-triazol-1-yl)acetamido)-7-(5-(isoquinolin-7-yl)-1H-imidazol-2-yl)-N-methylheptanamide]: the IC50 on human HDAC1 was 1 to 5 µM. In test [1], the EC50 was 1 to 5 µM.
As for `CNC(=O)CCCCC[C@H](NC(=O)c1cncs1)c1ncc(-c2ccc(-c3ccn(C)n3)cc2)o1` [Entry 222, (S)-N-(1-(5-(4-(1-methyl-1H-pyrazol-3-yl)phenyl)oxazol-2-yl)-7-(methylamino)-7-oxoheptyl)thiazole-5-carboxamide], the IC50 at human HDAC1 is greater than 5 µM. The molecule further showed an EC50 in test [1] of 1 to 5 µM.
In the same order, the values of `CNC(=O)CCCCC[C@H](NC(=O)c1cn2ccccc2n1)c1ncc(-c2ccc3ccccc3c2)[nH]1` [Entry 144, (S)-N-(7-(methylamino)-1-(5-(naphthalen-2-yl)-1H-imidazol-2-yl)-7-oxo-heptyl)imidazo[1,2-a]pyridine-2-carboxamide] are greater than 5 µM and greater than 5 µM.
In the same order, the values of `CNC(=O)CCCCC[C@H](NC(=O)c1cscn1)c1ncc(-c2ccc3ccncc3c2)[nH]1` [Entry 47, (S)-N-(1-(5-(isoquinolin-7-yl)-1H-imidazol-2-yl)-7-(methylamino)-7-oxoheptyl)thiazole-4-carboxamide] are greater than 5 µM and 1 to 5 µM.
In the same order, the values of `CNC(=O)CCCCC[C@H](NC(=O)c1cncs1)c1ncc(-c2ccc3ccccc3n2)[nH]1` [Entry 128, (S)-N-(7-(methylamino)-7-oxo-1-(5-(quinolin-2-yl)-1H-imidazol-2-yl)heptyl)thiazole-5-carboxamide] are greater than 5 µM and 1 to 5 µM.
For the molecule `CNC(=O)CCCCC[C@H](NC(=O)c1cncs1)c1ncc(-c2ccc3nc(OC)ccc3c2)[nH]1` [Entry 107, (S)-N-(1-(5-(2-methoxyquinolin-6-yl)-1H-imidazol-2-yl)-7-(methylamino)-7-oxoheptyl)thiazole-5-carboxamide], on human HDAC1, the IC50 was less than 1 µM. The same molecule returned an EC50 in test [1] of less than 1 µM.
On to `CNC(=O)CCCCC[C@H](NC(=O)c1cncs1)c1ncc(-c2ccc3c(ccn3C)c2)[nH]1` [Entry 132, (S)-N-(1-(5-(1-methyl-1H-indol-5-yl)-1H-imidazol-2-yl)-7-(methylamino)-7-oxoheptyl)thiazole-5-carboxamide], for which, at human HDAC1, the IC50 was less than 1 µM. The EC50 in test [1] is less than 1 µM.
In the case of `CNC(=O)CCCCC[C@H](NC(=O)Cn1ccnn1)c1ncc(-c2cc3ccccc3nc2OC)[nH]1` [Entry 6, (S)-7-(2-(1H-1,2,3-triazol-1-yl)acetamido)-7-(5-(2-methoxyquinolin-3-yl)-1H-imidazol-2-yl)-N-methylheptanamide], the half-maximal inhibitory concentration (IC50) on human HDAC1 fell in the range of 1 to 5 µM. For the same molecule, the EC50 in test [1] was 1 to 5 µM.
`CNC(=O)CCCCC[C@H](NC(=O)c1cncs1)c1ncc(-c2cc3ccccc3n(C)c2=O)[nH]1` [Entry 140, (S)-N-(1-(5-(1-methyl-2-oxo-1,2-dihydroquinolin-3-yl)-1H-imidazol-2-yl)-7-(methylamino)-7-oxoheptyl)thiazole-5-carboxamide]: the IC50 at human HDAC1 was 1 to 5 µM. For the same molecule, the EC50 in test [1] lay in the range of 1 to 5 µM.
For the molecule `CNC(=O)CCCCC[C@H](NC(=O)CCn1ccnc1)c1ncc(-c2cc3ccccc3nc2OC)[nH]1` [Entry 27, (S)-7-(3-(1H-imidazol-1-yl)propanamido)-7-(5-(2-methoxyquinolin-3-yl)-1H-imidazol-2-yl)-N-methylheptanamide], the IC50 on human HDAC1 lay in the range of 1 to 5 µM. In test [1], this molecule gave an EC50 of 1 to 5 µM.
For the molecule `CNC(=O)CCCCC[C@H](NC(=O)Cn1ccc(C)n1)c1ncc(-c2ccc(-c3ccn(C)n3)cc2)[nH]1` [Entry 171, (S)-N-methyl-7-(2-(3-methyl-1H-pyrazol-1-yl)acetamido)-7-(5-(4-(1-methyl-1H-pyrazol-3-yl)phenyl)-1H-imidazol-2-yl)heptanamide], the 50% inhibitory concentration (IC50) on human HDAC1 was greater than 5 µM. Moreover, the EC50 in test [1] is greater than 5 µM.
Consider `CNC(=O)CCCCC[C@H](NC(=O)c1cncs1)c1ncc(-c2cc3ccccc3[nH]c2=O)[nH]1` [Entry 193, (S)-N-(7-(methylamino)-7-oxo-1-(5-(2-oxo-1,2-dihydroquinolin-3-yl)-1H-imidazol-2-yl)heptyl)thiazole-5-carboxamide], for which the IC50 on human HDAC1 is less than 1 µM. In test [1], this molecule gave an EC50 of less than 1 µM.
As for `CNC(=O)CCCCC[C@H](NC(=O)CCN1CCCCC1)c1ncc(-c2ccc(C(F)(F)F)cc2)[nH]1` [Entry 101, (S)-N-methyl-7-(3-(piperidin-1-yl)propanamido)-7-(5-(4-(trifluoro-methyl)phenyl)-1H-imidazol-2-yl)heptanamide], the IC50 at human HDAC1 is greater than 5 µM. In test [1], this molecule returned a concentration for a half-maximal effect (EC50) of 1 to 5 µM.
In the same order, the values of `CNC(=O)CCCCC[C@H](NC(=O)c1cnn(C)c1)c1ncc(-c2ccc(-c3ccn(C)n3)cc2)[nH]1` [Entry 212, (S)-1-methyl-N-(1-(5-(4-(1-methyl-1H-pyrazol-3-yl)phenyl)-1H-imidazol-2-yl)-7-(methylamino)-7-oxoheptyl)-1H-pyrazole-4-carboxamide] are 1 to 5 µM and less than 1 µM.
As to `CNC(=O)CCCCC[C@H](NC(=O)c1cncs1)c1ncc(-c2ccc(-c3cc(C)[nH]n3)cc2)[nH]1` [Entry 59, (S)-N-(1-(5-(4-(5-methyl-1H-pyrazol-3-yl)phenyl)-1H-imidazol-2-yl)-7-(methylamino)-7-oxoheptyl)thiazole-5-carboxamide], the IC50 on human HDAC1 was in the range of 1 to 5 µM. Besides, the EC50 in test [1] lay in the range of 1 to 5 µM.
